Measured values from patent US7393828B2, “Modified MscL protein channel” (Applied NanoSystems B.V., priority 2003, dated 2008).

Tests used:
[1] = target: MscL channel protein (G22C, cysteine at 22nd position) (Escherichia coli, UniProt P0A742, G22C); conditions: for pH at which channel activity starts: buffers at different pHs; for channel activity of modified protein in response to pH: same sample in the same buffer at different pHs
Excerpt: All synthesized compounds were attached to the MscL protein from E. coli via cysteine modification. In this example, the 22nd position of the protein was mutated to a cysteine.
A membrane pellet fraction was obtained from a fermentor culture of E. coli pB104 cells containing the plasmid PB104 carrying the MscL(G22C)-6His construct. MscL was isolated to near homogeneity via a single nickel-nitriloacetic acid (Ni-NTA) metal-affinity chromatography step.
The protein modification reaction was stopped and the excess label was removed by applying the sample into a gel filtration column. The protein concentration of elution fractions was determined by Bradford Assay.
The modified protein was reconstituted in synthetic lipid membranes in order to follow the channel activity. For this purpose, DOPC:Cholesterol:DSPE-PEG (70:20:10 Molar ratio) liposomes were titrated with Triton-X100 until saturation. Titrated liposomes were mixed with modified protein in 1:120 (wt:wt) protein to lipid ratio. Biobeads were used to remove the detergent. A self-quenching dye, calcein, was added and included into the interior of the proteoliposomes during reconstitution.
Proteoliposomes containing modified MscL protein were analyzed by a fluorescent dye efflux assay. The activity of the channel was measured as an increase in the fluorescence of a reporter molecule, the dye calcein. Calcein is included in the liposome interior at a self-quenching concentration, but when the calcein escapes into the exterior medium, the dilution is such that quenching is completely abolished.
During reconstitution of the protein into the mixture of synthetic lipids in the presence of a detergent, a self-quenching dye, calcein, is also added into the mixture to a final concentration of 50 mM. After the reconstitution is completed by the removal of the detergent, the calcein-containing liposomal fraction was separated from the unencapsulated free calcein by passing the sample through a Sephadex G50 size exclusion column (FIG. 7A).
A portion of the liposomal fraction is placed in 2 ml iso-osmotic buffer and the activity of the channels is followed by measuring the increase in fluorescence as calcein becomes dequenched upon being released through the channel protein in response to a stimulus (FIG. 7B). Fluorescence was monitored with a SLM 500 spectrofluorometer Excitation and emission wavelengths were 490 (slit 2 nm) and 520 nm (slit 4 nm), respectively. A positively charged MTS reagent (MTSET) was used as a positive control.
The MscL protein was modified with the different pH-responsive compounds. The activity of the channel in response to pH was analyzed by the calcein efflux assay. In order to do that, the same buffer at different pHs were prepared and the same sample is analyzed in each buffer.
The MscL protein was modified with a light-sensitive compound. The activity of the channel was analyzed in response to pH. After measuring the initial fluorescence value for samples at each pH, they were exposed to 366 nm light for five to ten minutes. Then, the measurement was continued as before.
The protein from cysteine mutant MscL (cysteine in its 22nd amino acid position) was isolated and modified as explained in Example 2, except that the light-responsive compound E (see FIG. 12c) (P6—C1[X═I]) was dissolved in DM50 and incubated with the protein at a 1:500 molar ratio (protein:compound) for 45 minutes.
(§1) The resulting modified channel was reconstituted in the presence of a fluorescent dye as explained in Example 3 for the calcein efflux experiment. Another sample of the modified channel was prepared for patch clamp experiments as indicated in Example 6.
The protein was isolated and modified as in Example 2 and reconstituted in the presence of calcein as indicated in Example 3.

[2] = target: MscL channel protein (cysteine in its 22nd amino acid position) (Escherichia coli, UniProt P0A742, G22C)
Procedure: The activity of the chemically modified MscL is analyzed real time at the single molecule level with patch clamp, a classical electrophysiological technique. This technique allows sealing a patch of membrane, which has embedded channel proteins in it, into the tip of a glass micropipette, and monitoring the ionic current flowing through the open channels in response to different conditions.
As a mechanosensitive channel, unmodified MscL needs a significant amount of tension on the membrane to gate. In patch clamp conditions, it corresponds to the application of negative pressure almost as high as that causing rupturing of the patched membrane.
The channel activity was measured by following its conductance.
The protein from cysteine mutant MscL (cysteine in its 22nd amino acid position) was isolated, modified and reconstituted as explained in Example 2. After reconstitution, giant proteoliposomes were prepared as indicated (A. H. Delcour, B. Martinac, F. R. Blattner, C. Kung, Biophys. J. 1989, 56:631-636). Ten μl rehydrated lipids were placed in 100 μl bath solution and resulting giant liposomes were patched by using glass pipettes with 1 μm tip size. They were made from 100 μl borosilicate capillaries in Sutter 97/IVF micropipette puller. Single channel recordings were performed at +20 mV in symmetrical buffer conditions in 200 mM KCl, 100 mM MgCl2, 5 mM HEPES, pH 6-8. Data were amplified and filtered in Axopatch1D amplifier and sampled in Digidata 1322A digitizer. Recordings were analyzed with pCLAMP8 software.
as §1
Membranes having modified channels were patched at dark or five to ten minutes after illumination with 366 nm light.

[3] = target: double cysteine MscL mutant (22nd and 23rd positions) (Escherichia coli, UniProt P0A742, G22C/V23C)
Excerpt: In order to further improve modulation of the activity of chemically modified MscL, in addition to the amino acid at the 22nd position of the channel, the 23rd position is also replaced with cysteine. This way, if all the subunits are modified, one can introduce two times more charge.
This example compares the single- and double-cysteine mutants for their performance in efflux from proteoliposomes.
The protein from each mutant was obtained and modified with the Compound C (Q1[R1═R2=Me]-L1[n=2]—C3), as explained in Example 2, and the reconstitution for calcein efflux assay was as in Example 3.

[4] = Solubility of the product in common solvents; assay type: physicochemical

Sequence of MscL channel protein (G22C, cysteine at 22nd position) (P0A742 whole entry G22C): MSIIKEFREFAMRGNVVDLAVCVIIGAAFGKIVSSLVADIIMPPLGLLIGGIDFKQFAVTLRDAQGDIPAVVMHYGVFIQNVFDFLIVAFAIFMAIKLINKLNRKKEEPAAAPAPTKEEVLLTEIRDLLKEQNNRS
Sequence of MscL channel protein (cysteine in its 22nd amino acid position) (P0A742 whole entry G22C): as above
Sequence of double cysteine MscL mutant (22nd and 23rd positions) (P0A742 whole entry G22C/V23C): as the sequence (P0A742 whole entry G22C) above, with V23C counted along it

Structure (SMILES): CNCC(=O)OCCSS(C)(=O)=O [compound B]
- pH at which channel activity starts [1]: < 8 pH
- pKa ([1]; compound attached to MscL): approximately 8
- channel activity of modified protein in response to pH [1]: pH-dependent activation
- channel gating in patch clamp at pH 6.2 ([2]; pH 6.2, n=4): gated even without any applied negative pressure
- mean negative pressure applied (until membrane rupture, no gating) ([2]; pH 7.2, n=10): 79 mmHg
- channel activity in patch clamp at pH 7.2 ([2]; pH 7.2, n=10, negative pressure applied until the patched membrane ruptured): did not give any activity

Structure (SMILES): CS(=O)(=O)SCCOC(=O)CN [compound A]
- channel activity at physiological pH ([1]; physiological pH): some activity
- channel activity of modified protein in response to pH [1]: pH-dependent activation, especially at lower pHs

Structure (SMILES): C[N+](C)(C)CCSS(C)(=O)=O.[Br-] [MTSET, [2-(Trimethylammonium)-ethyl]-methanethiosulfonate bromide, reference compound]
- channel opening after reaction with free sulfhydryl at 22nd position (positive control) ([1]; MTSET 0.8 mM final concentration as trigger): always opens the channel

Structure (SMILES): CN(C)CC(=O)OCCSS(C)(=O)=O [compound C]
- pH at which channel activity starts [1]: ~7.03 pH
- release of liposomal content at high pH, single mutant ([1]; high pH): did not release the liposomal content
- channel activity at pH 7.5 ([1]; pH 7.5): no activity
- pH dependence of gating in patch clamp ([2]; different pHs): gated only at low pH environment
- channel gating in patch clamp at pH 6.3 ([2]; pH 6.3): spontaneous gating
- release of liposomal content at high pH, double mutant ([3]; high pH): did not release the liposomal content
- release at low pH, double mutant compared with single mutant ([3]; low pH, two separate experiments): better release

Structure (SMILES): COc1cc(COC(=O)CI)c([N+](=O)[O-])cc1OC [compound E, 4.5-dimethoxy-2-nitrobenzyl 2-iodoacetate]
- release of fluorescent dye in the dark ([1]; dark, iso-osmotic conditions): did not give any release
- release of fluorescent dye after illumination ([1]; exposed to ultraviolet light, iso-osmotic conditions): released the fluorescent dye as soon as proteoliposomes were exposed to ultraviolet light
- channel gating in patch clamp at dark ([2]; dark, negative pressure up to membrane rupture): no channel gating
- channel gating in patch clamp after illumination ([2]; five to ten minutes after illumination with 366 nm light, no tension): gated simultaneously with no tension

Structure (SMILES): COc1cc(COC(=O)NCCSS(C)(=O)=O)c([N+](=O)[O-])cc1OC [compound D, methanethiosulfonic acid S-[2-(4,5-dimethoxy-2-nitro-benzyloxycarbonylamino)-ethyl] ester]
- channel activity after cleavage of the light-sensitive part ([1]; after 366 nm light for five to ten minutes, different pHs): pH-dependent activity
- channel activity before photolysis ([1]; no illumination, different pHs): stayed inactive until the photolysis occurs
- solubility in DMF and DMSO ([4]; DMF, DMSO): soluble
- solubility in dichloromethane and chloroform ([4]; dichloromethane, chloroform): a little soluble
- solubility in other common solvents ([4]; other common solvents): very badly soluble
